According to PMC8175350, “Drug repurposing screens identify chemical entities for the development of COVID-19 interventions” (Nature Communications, 2021):
Like-named read-outs stand apart in the source and are kept apart here.

Key:
in vitro = settings: human
SARS-CoV-2 [1] = assay: microbe, parasite or virus in culture; type: cell-based
Calu-3 cells [2] = settings: for Calu-3 uninfected cytotoxicity Sinf Average / Calu-3 uninfected cytotoxicity Sinf Average (%): human
[3] = Uninfected HeLa-ACE2 24 h live/dead cytotoxicity counter screen; type: cell-based, human; settings: human, uninfected HeLa-ACE2 cells
HeLa-ACE2 cells [4] = assay: as above; type: cell-based, human; settings: for HeLa-ACE2 uninfected cytotoxicity Sinf Average: curve-fit effect at infinite concentration
Calu-3 cells [5] = assay: cells; settings: Homo sapiens; for Emax: Calu-3, 48 h
HeLa-ACE2 cells [6] = assay: cells; settings: Homo sapiens; for Emax: HeLa-ACE2, 24 h, read-out: HeLa-ACE2 cell count Sinf Average
SARS-CoV-2 [7] = assay: microbe, parasite or virus in culture; type: cell-based; settings: for Emax: Severe acute respiratory syndrome coronavirus 2, Calu-3, 48 h
SARS-CoV-2 [8] = assay: microbe, parasite or virus in culture; type: cell-based; settings: HeLa-ACE2
[9] = Severe acute respiratory syndrome coronavirus 2, HeLa-ACE2, unrounded geometric mean, read-out: HeLa-ACE2 CoV-2 EC50 GeoMean
[10] = uninfected cells, Fig. 2b group, read-out: HeLa-ACE2 CC50
[11] = unrounded geometric mean, read-out: HeLa-ACE2 uninfected cytotoxicity CC50 GeoMean
[12] = read-out: Calu-3 cell count Sinf Average
[13] = Calu-3, read-out: Calu-3 cell count EC50 GeoMean, unrounded geometric mean
[14] = HeLa-ACE2, read-out: HeLa-ACE2 cell count EC50 GeoMean, unrounded geometric mean
[15] = curve-fit effect at infinite concentration, average, read-out: Calu-3 CoV-2 Sinf Average
[16] = Severe acute respiratory syndrome coronavirus 2, Calu-3, unrounded geometric mean, read-out: Calu-3 CoV-2 EC50 GeoMean
[17] = Calu-3 uninfected cytotoxicity CC50 GeoMean (µM)
[18] = Severe acute respiratory syndrome coronavirus 2, HeLa-ACE2, geometric mean of replicates, read-out: HeLa-ACE2 CoV-2 EC50 GeoMean
[19] = geometric mean of replicates, read-out: HeLa-ACE2 uninfected cytotoxicity CC50 GeoMean
[20] = read-out: Calu-3 cell count Sinf Average (%)
[21] = Calu-3, read-out: Calu-3 cell count EC50 GeoMean (µM), geometric mean of replicates
[22] = HeLa-ACE2, read-out: HeLa-ACE2 cell count EC50 GeoMean (µM), geometric mean of replicates
[23] = Sinf average of the curves, read-out: Calu-3 CoV-2 Sinf Average (%)
[24] = Severe acute respiratory syndrome coronavirus 2, Calu-3, geometric mean of replicates, read-out: Calu-3 CoV-2 EC50 GeoMean
[25] = Severe acute respiratory syndrome coronavirus 2, HeLa-ACE2, reconfirmed hits, read-out: HeLa-ACE2 SARS-CoV-2 EC50
[26] = reconfirmed hits, read-out: HeLa-ACE2 Uninf. cells CC50
[27] = Severe acute respiratory syndrome coronavirus 2, Calu-3, reconfirmed hits, read-out: Calu-3 SARS-CoV-2 EC50

| Compound | CC50 at 48 h (in vitro; [17]) [µM] | EC50 (SARS-CoV-2 [1]; [18]) [µM] | uninfected Calu-3 CC50 [μM] (Calu-3 cells [2]) | CC50 at 24 h [3, 19] [µM] | Emax (Calu-3 cells [5]; [20]) [%] | EC50 (Calu-3 cells [5]; [21]) [µM] | EC50 (HeLa-ACE2 cells [6]; [22]) [µM] | Emax (SARS-CoV-2 [7]; [23]) [%] | EC50 (SARS-CoV-2 [7]; [24]) [µM] | CC50 at 48 h (in vitro; Calu-3 Uninf. cells CC50 (µM)) [µM] | EC50 (SARS-CoV-2 [1]; [25]) [µM] | CC50 at 24 h [3, 26] [µM] | EC50 (SARS-CoV-2 [7]; [27]) [µM] | also measured |
| --- | --- | --- | --- | --- | --- | --- | --- | --- | --- | --- | --- | --- | --- | --- |
| CCCCCCCC/C=C/CCCCCCCC(=O)OC[C@H]1O[C@@H](n2ccc(N)nc2=O)C(F)(F)[C@@H]1O [Gemcitabine elaidate] |  |  |  |  |  |  |  |  |  |  |  |  |  | CC50 at 48 h (in vitro; Calu-3 uninfected cytotoxicity CC50 GeoMean): > 29.9 µM; EC50 (SARS-CoV-2 [1]; [9]): > 9.59 µM; uninfected Calu-3 CC50 (Calu-3 cells [2]): > 29.867 ×÷ 1 (n=3) μM; Calu-3 uninfected cytotoxicity Sinf Average (Calu-3 cells [2]; 48 h): -100%; CC50 at 24 h [3, 10]: ≤ 3 µM; CC50 at 24 h [3, 11]: < 0.00582 µM; HeLa-ACE2 uninfected cytotoxicity Sinf Average (HeLa-ACE2 cells [4]): -53%; Emax (Calu-3 cells [5]; [12]): 48%; EC50 (Calu-3 cells [5]; [13]): > 3.7 µM; Emax (HeLa-ACE2 cells [6]): 51%; EC50 (HeLa-ACE2 cells [6]; [14]): < 0.0122 µM; Emax (SARS-CoV-2 [7]; [15]): 90%; EC50 (SARS-CoV-2 [7]; [16]): 0.324 µM |
| CSc1ccc(CN2CCCC(Nc3ccc4[nH]ncc4c3)C2)cc1 (stereo not drawn) [INS-117548] | > 29.9 | > 9.59 | > 29.875 ×÷ 1 (n=2) μM | > 39.8 | 55 | 0.31 | > 9.59 | 77 | > 3.55 |  |  |  |  | Calu-3 uninfected cytotoxicity Sinf Average (%) (Calu-3 cells [2]; 48 h): -92%; HeLa-ACE2 uninfected cytotoxicity Sinf Average (%) (HeLa-ACE2 cells [4]; Sinf average of the curves): -100% |
| C[C@]12O[C@H](C[C@]1(O)CO)n1c3ccccc3c3c4c(c5c6ccccc6n2c5c31)CNC4=O [Lestaurtinib] |  |  |  |  |  |  |  |  |  |  |  |  |  | CC50 (in vitro; Calu-3 uninfected cytotoxicity CC50 GeoMean, unrounded geometric mean): > 20.1 µM; Emax (SARS-CoV-2 [1]; Severe acute respiratory syndrome coronavirus 2, HeLa-ACE2, 24 h, curve-fit effect at infinite concentration, average, read-out: HeLa-ACE2 CoV-2 Sinf Average): 99%; EC50 (SARS-CoV-2 [1]; [9]): 0.546 µM; Calu-3 uninfected cytotoxicity Sinf Average (Calu-3 cells [2]): -98%; CC50 at 24 h [3, 10]: ≤ 3 µM; CC50 at 24 h [3, 11]: 0.758 µM; HeLa-ACE2 uninfected cytotoxicity Sinf Average (HeLa-ACE2 cells [4]): -100%; Emax (Calu-3 cells [5]; [12]): 100%; EC50 (Calu-3 cells [5]; [13]): > 4.71 µM; Emax (HeLa-ACE2 cells [6]): 102%; EC50 (HeLa-ACE2 cells [6]; [14]): 0.614 µM; Emax (SARS-CoV-2 [7]; [15]): 91%; EC50 (SARS-CoV-2 [7]; [16]): 0.674 µM |
| N=C(N)Nc1ccc(C(=O)Oc2ccc(S(N)(=O)=O)cc2)cc1 [Ono-3307] | > 29.9 | > 9.59 | > 29.867 ×÷ 1 (n=3) μM | > 39.8 | 99 | 3.58 | > 9.59 | 96 | 1.6 | > 30 | > 9.6 | > 40 | 1.6 |  |
| C=CC(=O)Nc1cc(Nc2nccc(-c3cn(C)c4ccccc34)n2)c(OC)cc1N(C)CCN(C)C [Osimertinib] |  |  |  |  |  |  |  |  |  |  |  |  |  | EC50 ratio between the standard 24 h and the TOA assay (SARS-CoV-2 [8]): > 8; SI in Calu-3 (SARS-CoV-2 [7]; CC50/EC50): < 2 |
| CC(=O)N1C[C@H](O)C[C@H]1C(=O)N[C@@H](CCCNC(=N)N)C(=O)c1nc2ccccc2s1 [RWJ-56423] | > 29.9 | > 9.59 | > 29.867 ×÷ 1 (n=3) μM | > 39.8 | 100 | 2.85 | > 9.59 | 89 | 1.23 | > 30 | > 9.6 | > 40 | 1.23 |  |
| N=C(N)c1ccc2cc(OC(=O)c3ccc(CNC(=O)CCCC(=O)O)o3)ccc2c1 [TO-195] | > 29.9 | > 6.42 | > 29.867 ×÷ 1 (n=3) μM | > 39.8 | 84 | 1.16 | > 9.59 | 91 | 0.657 | > 30 | > 6.4 | > 40 | 0.657 | Calu-3 uninfected cytotoxicity Sinf Average (%) (Calu-3 cells [2]; 48 h): -100% |
| NC(N)=Nc1ncc(Cl)c2ccc(-c3cccc(C(=O)O)c3)cc12 [UK-356202] | > 29.9 | > 9.59 | > 29.875 ×÷ 1 (n=2) μM | > 39.8 | 98 | > 7.28 | > 9.59 | 85 | 1.92 |  |  |  |  |  |
| CC(=N)N1CCC(Oc2ccc(N(Cc3ccc4ccc(C(=N)N)cc4c3)S(=O)(=O)CC(=O)O)cc2)CC1 [YM 60828] | > 29.9 | > 9.59 | > 29.867 ×÷ 1 (n=3) μM | > 39.8 | 100 | 6.81 | > 9.59 |  | 3.18 |  |  |  |  |  |
